pIC50: −log10 of the molar value. Each block holds one compound with its values, some of them ahead of it.
Columns and labels:
Mus musculus [1] = experiment: Anesthetic activity determined as hypnotic dose by intravenous administration in male MF-1 mice; type: functional
[2] = molecular target: GABA-A receptor; anion channel; experiment: Inhibition of [35S]TBPS binding to GABA-A receptor rat whole brain membranes; type: cell membranes
Mus musculus [3] = experiment: Anesthetic activity as hypnotic dose by intravenous administration in male MF-1 mice; type: functional
Mus musculus [4] = experiment: Anesthetic activity as hypnotic dose by intravenous administration in male MF-1 mice; Convulsant; type: functional, organism-based
Rattus norvegicus [5] = experiment: Time to righting for Mean burst suppression ratio (BSR) after the start of a 10 s iv bolus injection of compound; type: functional
Rattus norvegicus [6] = experiment: Time for Mean burst suppression ratio (BSR) after the start of a 10 s iv bolus injection of compound; type: functional
Rattus norvegicus [7] = species: Rattus norvegicus; experiment: Parameter value extracted from closed loop infusions to maintain 60% Mean burst suppression ratio (BSR) for 1 hr periods; type: functional
Rattus norvegicus [8] = experiment: Dose for 60% Mean burst suppression ratio (BSR) after the start of a 10 s iv bolus injection of compound; type: functional
Rattus norvegicus [9] = experiment: Time to 30% Mean burst suppression ratio (BSR) after the start of a 10 s iv bolus injection of compound; type: functional
Rattus norvegicus [10] = experiment: Time to 1st 0.25 s BS epoch (s) of Mean burst suppression ratio (BSR) after the start of a 10 s iv bolus injection of compound; type: functional
Rattus norvegicus [11] = species: Rattus norvegicus; experiment: (§1) Parameter value extracted from closed loop infusions to maintain 60% Mean burst suppression ratio (BSR) for 1 h periods; type: functional
Rattus norvegicus [12] = species: Rattus norvegicus; experiment: as §1; type: functional, organism-based

Compound: COCCC(C(=O)Oc1c(OC)cccc1OC)N1CCC(OC)CC1 (configuration not stated)
- HD50 (Mus musculus [1]): 21 µM/kg

- pIC50 [2]: < 4.00
Compound: COCCC(C(=O)Oc1c(OC)cccc1OC)N1CCCOCC1 (single isomer, unassigned; form 1)
- HD50 (Mus musculus [1]): 30 µM/kg

Compound: COCC(C(=O)Oc1c(OC)cccc1OC)N1CCOCC1 (configuration not stated)
- HD50 (Mus musculus [1]): 54 µM/kg

- pIC50 [2]: < 4.00
Compound: CCOCCC(C(=O)Oc1c(OC)cccc1OC)N1CCCOCC1 (single isomer, unassigned)
- HD50 (Mus musculus [1]): 48 µM/kg

- pIC50 [2]: 4.49
Compound: COCCC(C(=O)Oc1c(OC)cccc1OC)N1CCCOCC1 (single isomer, unassigned; form 2)

Compound: COCCN(CCOC)C(CN1CCOCC1)C(=O)Oc1c(OC)cccc1OC (configuration not stated)
- HD50 (Mus musculus [3]): 75 µM/kg

Compound: COc1cccc(OC)c1OC(=O)C(CN1CCOCC1)N1CCSCC1 (configuration not stated)
- HD50 (Mus musculus [3]): 19 µM/kg

Compound: CCOCCC(C(=O)Oc1c(OC)cccc1OC)N1CCOCC1 (configuration not stated)
- HD50 (Mus musculus [1]): 36 µM/kg

Compound: CCOCCN(CCOCC)C(CCOC)C(=O)Oc1c(OC)cccc1OC (configuration not stated)
- HD50 (Mus musculus [1]): 28 µM/kg

Compound: CCOCCC(C(=O)Oc1c(OC)cccc1OC)N(CCOCC)CCOCC (configuration not stated)
- HD50 (Mus musculus [1]): 47 µM/kg

Compound: CCC(=O)N1CCN(Cc2ccccc2)C(C(=O)Oc2c(OC)cccc2OC)C1 (configuration not stated)
- HD50 (Mus musculus [3]): 34 µM/kg

Compound: CCOCCC(C(=O)Oc1c(OC)cccc1OC)N1CCCOCC1 (stereo in doubt; 39)
- HD50 (Mus musculus [1]): 23 µM/kg

- pIC50 [2]: 4.01
Compound: COCC(C(=O)Oc1c(OC)cccc1OC)N1CCCOCC1 (single isomer, unassigned; form 2)
- HD50 (Mus musculus [1]): 40 µM/kg

Compound: COCCCN(CCCOC)C(COC)C(=O)Oc1c(OC)cccc1OC (configuration not stated)
- HD50 (Mus musculus [1]): 46 µM/kg

- pIC50 [2]: 4.16
Compound: COCCC(C(=O)Oc1c(OC)cccc1OC)N1CCCOCC1 (racemic)
- HD50 (Mus musculus [1]): 20 µM/kg

Compound: CCOCCN(CCOCC)CC(C(=O)Oc1c(OC)cccc1OC)N(CCOCC)CCOCC (configuration not stated)
- HD50 (Mus musculus [4]): Convulsant

- pIC50 [2]: 4.45
Compound: COCC(C(=O)Oc1c(OC)cccc1OC)N1CCCOCC1 (single isomer, unassigned; form 1) [listing 1 of 2 here]
- Time (Rattus norvegicus [5]): 3.3 min
- Time (Rattus norvegicus [6]): 32 s
- Infusion rate (Rattus norvegicus [7]): 5 µM/min/kg
- Time to 30% BSR (Rattus norvegicus [7]): 2.4 min
- Dose (Rattus norvegicus [8]): 11.4 µM/kg
- HD50 (Mus musculus [1]): 16 µM/kg
- Time (Rattus norvegicus [9]): 1.3 min
- Time (Rattus norvegicus [10]): 12.9 s
- Time to righting (Rattus norvegicus [11]): 6.8 min

- pIC50 [2]: 4.46
Compound: CCOCCC(C(=O)Oc1c(OC)cccc1OC)N1CCCOCC1 (racemic)

Compound: CC[C@H](C(=O)Oc1c(OC)cc(C)cc1OC)N(CCOC)CCOC [ORG-24447]
- HD50 (Mus musculus [3]): 22 µM/kg
- pIC50 [2]: 4.53

Compound: CCOCCN(CCOCC)CC(C(=O)Oc1c(OC)cccc1OC)N1CCOCC1 (configuration not stated)
- HD50 (Mus musculus [4]): Convulsant

Compound: COc1cccc(OC)c1OC(=O)C(CN1CCSCC1)N1CCOCC1 (configuration not stated)
- HD50 (Mus musculus [3]): 17 µM/kg

Compound: C=CCN1CCN(Cc2ccccc2)C(C(=O)Oc2c(OC)cccc2OC)C1 (configuration not stated)
- HD50 (Mus musculus [3]): 31 µM/kg

- pIC50 [2]: 4.46
Compound: COCC(C(=O)Oc1c(OC)cccc1OC)N1CCCOCC1 (stereo in doubt; 26)
- HD50 (Mus musculus [1]): 30 µM/kg

Compound: CCOCCC(C(=O)Oc1c(OC)cccc1OC)N1CCCOCC1 (stereo in doubt)
- HD50 (Mus musculus [1]): 15 µM/kg

Compound: COc1cccc(OC)c1OC(=O)C(CN1CCOCC1)N1CCc2ccccc2C1 (configuration not stated)
- HD50 (Mus musculus [3]): 21 µM/kg

Compound: COCCC(C(=O)Oc1c(OC)cccc1OC)N1CCCOCC1 (stereo in doubt; 31)
- HD50 (Mus musculus [1]): 15 µM/kg

Compound: CCN1CCN(Cc2ccccc2)C(C(=O)Oc2c(OC)cccc2OC)C1 (configuration not stated)
- HD50 (Mus musculus [3]): 24 µM/kg

Compound: COCC(C(=O)Oc1c(OC)cccc1OC)N1CCSCC1 (configuration not stated)
- HD50 (Mus musculus [1]): 21 µM/kg

Compound: COCCC(C(=O)Oc1c(OC)cccc1OC)N(CCOC)CCOC (configuration not stated)
- HD50 (Mus musculus [1]): 27 µM/kg

Compound: COc1cccc(OC)c1OC(=O)C(CN1CCCOCC1)N1CCCOCC1 (configuration not stated)
- HD50 (Mus musculus [3]): <25 µM/kg

Compound: COc1cccc(OC)c1OC(=O)C1CNCCN1Cc1ccccc1 (configuration not stated)
- HD50 (Mus musculus [4]): Convulsant

Compound: COCC(C(=O)Oc1c(OC)cccc1OC)N1CCCOCC1 (single isomer, unassigned; form 1) [listing 2 of 2 here]
- Stability of BSR (Rattus norvegicus [12]): 2.5%

Compound: COCCC(C(=O)Oc1c(OC)cccc1OC)N1CCCCCC1 (configuration not stated)
- HD50 (Mus musculus [1]): 17 µM/kg

Compound: COc1cccc(OC)c1OC(=O)C(CN1CCCCC1)N1CCOCC1 (configuration not stated)
- HD50 (Mus musculus [3]): 15 µM/kg

Compound: COCCC(C(=O)Oc1c(OC)cccc1OC)N1C=CCCC1 (configuration not stated)
- HD50 (Mus musculus [1]): 22 µM/kg

Compound: CCOCCN(CCOCC)C(COC)C(=O)Oc1c(OC)cccc1OC (configuration not stated)
- HD50 (Mus musculus [1]): 25 µM/kg

Compound: COCCC(C(=O)Oc1c(OC)cccc1OC)N1CCOCC1 (configuration not stated)
- HD50 (Mus musculus [1]): 38 µM/kg

Compound: CCOCCC(C(=O)Oc1c(OC)cccc1OC)N1CCCCCC1 (configuration not stated)
- HD50 (Mus musculus [1]): 25 µM/kg

Compound: COc1cccc(OC)c1OC(=O)C(CN1CCOCC1)N1CCOCC1 (configuration not stated)
- HD50 (Mus musculus [3]): 38 µM/kg

Compound: CCOCC(C(=O)Oc1c(OC)cccc1OC)N1CCCOCC1 (configuration not stated)
- HD50 (Mus musculus [1]): 20 µM/kg

Compound: COc1cccc(OC)c1OC(=O)C(CN1CCSCC1)N1CCSCC1 (configuration not stated)
- HD50 (Mus musculus [3]): 15 µM/kg

Compound: CCOCCC(C(=O)Oc1c(OC)cccc1OC)N(CCOC)CCOC (configuration not stated)
- HD50 (Mus musculus [1]): 27 µM/kg

Compound: COCCC(C(=O)Oc1c(OC)cccc1OC)N1CCCCC1 (configuration not stated)
- HD50 (Mus musculus [1]): 22 µM/kg

Compound: COc1cccc(OC)c1OC(=O)C1CN(C)CCN1Cc1ccccc1 (configuration not stated)
- HD50 (Mus musculus [3]): 122 µM/kg

Compound: CC(C)c1cccc(C(C)C)c1O [PROPOFOL]
- Time (Rattus norvegicus [5]): 5.5 min
- Time (Rattus norvegicus [6]): 30 s
- Dose (Rattus norvegicus [8]): 41 µM/kg
- HD50 (Mus musculus [3]): 68 µM/kg
- Time (Rattus norvegicus [9]): 1.5 min
- Time (Rattus norvegicus [10]): 13.1 s

Compound: COCCN(CCOC)CC(C(=O)Oc1c(OC)cccc1OC)N(CCOC)CCOC (configuration not stated)
- HD50 (Mus musculus [4]): Convulsant

Compound: COCC(C(=O)Oc1c(OC)cccc1OC)N1CCCCC1 (configuration not stated)
- HD50 (Mus musculus [1]): 146 µM/kg

— ChEMBL document CHEMBL1136532, “Novel water soluble 2,6-dimethoxyphenyl ester derivatives with intravenous anaesthetic activity” (Bioorg Med Chem Lett, 2003)
